In PMC3050021 (Cancer cell, 2010):
“Also recorded” adds a separate entry of the source. Residues, ends and D or L forms follow the SMILES beside them. *: point of attachment. Cbz = O=C(OCc1ccccc1)*

Columns and labels:
[1] = test system: p53-HDMX complex (JEG-3 cells); assay: Anti-HDMX immunoprecipitation, p53 western, JEG-3; assay type: cell-based, human
[2] = ref Vassilev et al., 2004; cited from earlier work
[3] = test system: JEG-3 cells; assay: Cell viability JEG-3; assay type: cell-based, human; conditions: 0.3–20 µM, 24 h, CellTiter-Glo; HDMX-overexpressing choriocarcinoma; Figure 3C
[4] = test system: p53 (MCF-7 cells); assay: p53 western analysis, MCF-7; conditions: Nutlin-3 20 µM, 10 µM MG-132, 6 h, Figure 7A
[5] = test system: caspase-3/7 (JEG-3 cells); assay: Caspase-3/7 activation, JEG-3; assay type: cell-based, human; conditions: 0.3–10 µM, 12 h, Caspase-3/7-Glo, Figure 5B
[6] = test system: osteosarcoma murine xenograft; conditions: ref Vassilev et al., 2004; cited from earlier work
[7] = test system: SJSA-X cells; assay: Combination / synergy study, SJSA-X; assay type: cell-based; conditions: SJSA-X (induced HDMX expression in isogenic SJSA-1), 0.5–20 µM; Figure 7G
[8] = test system: MCF-7 cells; conditions: ref Wade et al., 2008; cited from earlier work
[9] = test system: MCF-7 cells; assay: Cell viability MCF-7; assay type: cell-based; conditions: 0.3–20 µM, 24 h, CellTiter-Glo; HDM2- and HDMX-expressing breast cancer; Figure 3A–E
[10] = test system: SJSA-X cells; assay: Cell viability SJSA-X; assay type: cell-based; conditions: 0.3–20 µM, 24 h, CellTiter-Glo; overexpresses HDM2 and HDMX; Figure 3B
[11] = test system: A431 cells (R273H p53); assay: Cell viability A431; assay type: cell-based; conditions: 0.3–20 µM, 24 h, CellTiter-Glo; R273H p53 mutation
[12] = test system: p53 (JEG-3 cells); assay: p53 western analysis, JEG-3; assay type: cell-based, human; conditions: 20 µM, 6 h, Figure 4A
[13] = test system: HDM2; conditions: ref Vassilev et al., 2004; cited from earlier work
[14] = test system: HCT116 cells; assay: Cell viability HCT116; assay type: cell-based; conditions: 0.3–20 µM, 24 h, CellTiter-Glo; HDM2- and HDMX-expressing colon cancer; Figure 3A–E
[15] = test system: HCT116 cells deficient in p53; assay: Cell viability HCT116 deficient in p53; assay type: cell-based; conditions: 0.3–20 µM, 24 h, CellTiter-Glo; genetic deletion of p53; Figure 3F, 3G
[16] = test system: p53-HDMX complex (MCF-7 cells); assay: Anti-HDMX immunoprecipitation, p53 western, MCF-7; assay type: cell-based; conditions: Nutlin-3 20 µM alone or with 5 or 20 µM SAH-p53-8, 10 µM MG-132, 6 h, Figure 7A
[17] = test system: SJSA-1 cells; assay: Cell viability SJSA-1; assay type: cell-based; conditions: 0.3–20 µM, 24 h, CellTiter-Glo; HDM2-overexpressing osteosarcoma; Figure 3A
[18] = test system: WS1 normal human fibroblasts; assay: Cell viability WS1 normal fibroblasts; conditions: 0.3–20 µM, 24 h, CellTiter-Glo; Figure 3I

Row | SMILES | p53-HDMX complex in the presence of MG-132 ([1]; 0–20 µM SAH-p53-8 with 10 µM MG-132, 6 h, Figure 4B) | cell cycle arrest and apoptosis [2] | p53-HDMX complex ([1]; 20 µM, 6 h, anti-HDMX IP, Figure 4A) | cell viability JEG-3 [3] | p53 levels [4] | caspase-3/7 activation [5] | anti-tumor efficacy [6] | single-agent effect in synergy study [7] | sensitivity of MCF-7 to Nutlin-3 [8] | cell viability MCF-7 [9] | cell viability SJSA-X [10] | cell viability A431 [11] | p53 levels [12] | inhibition of HDM2 [13] | cell viability HCT116 [14] | cell viability HCT116 deficient in p53 [15] | p53-HDMX complex [16] | cell viability SJSA-1 [17] | viability of normal human fibroblasts WS1 [18]
1 | CC(C)C[C@@H](C=O)NC(=O)[C@H](CC(C)C)NC(=O)[C@H](CC(C)C)NC(=O)OCc1ccccc1 [MG-132] (Cbz-Leu-Leu-Leu-aldehyde) | increased p53-HDMX complex | – | – | – | – | – | – | – | – | – | – | – | – | – | – | – | – | – | –
2 | COc1ccc(C2=N[C@@H](c3ccc(Cl)cc3)[C@@H](c3ccc(Cl)cc3)N2C(=O)N2CCNC(=O)C2)c(OC(C)C)c1 [Nutlin-3] | – | triggers cell cycle arrest and apoptosis | p53-HDMX complexes were preserved, if not increased | little to no response; also recorded: most resistant to Nutlin-3 | can elevate p53 levels in MCF-7 cells | little effect | exhibits anti-tumor efficacy | ineffective as a single agent | only modestly sensitive | modestly sensitive | little to no response | similarly unaffected | an increase in p53 levels was observed | inhibits HDM2 | modestly sensitive | completely insensitive | appearance of the inhibitory p53-HDMX complex | very sensitive; also recorded: more cytotoxic than SAH-p53-8 in SJSA-1 cells | no impact on the viability of normal human fibroblasts
